Earlier results on one substance are cited in patent US10485825B2, “Prevention of pregnancy complications by noble gas administration” (NOBLIS THERAPEUTICS, INC., priority 2016, dated 2019).

The test system of the data set is Tregs. To be noted: CCL20 stimulation; blocked by neutralizing anti-CCL20 antibody.

Turning to “CCL20: CCL20 protein used to stimulate Treg migration in a cited study”, the “increase in migration of CCL20-stimulated Tregs” value was 3.21 fold.
